Tests used:
[1] = Molar enthalpy of transition or fusion; conditions: Crystal; DSC
[2] = for Normal melting temperature: DTA

Oc1c(Br)cc(Br)cc1Br [2,4,6-tribromophenol]
Conditions | Molar enthalpy of transition or fusion [kJ/mol]
[1] | 20.8

Conditions | mass density [kg/m3]
[2], 150 K, 101.33 kPa, Crystal, X-ray diffraction | 2712

[2]
Conditions | vapor or sublimation pressure [kPa]
307.16 K, Crystal, Calculated from knudsen effusion weight loss | 0.000107
309.36 K, Crystal, Calculated from knudsen effusion weight loss | 0.000141
311.2 K, Crystal, Calculated from knudsen effusion weight loss | 0.000177
313.15 K, Crystal, Calculated from knudsen effusion weight loss | 0.000221
315.37 K, Crystal, Calculated from knudsen effusion weight loss | 0.000286
317.19 K, Crystal, Calculated from knudsen effusion weight loss | 0.000358
319.15 K, Crystal, Calculated from knudsen effusion weight loss | 0.00044
321.33 K, Crystal, Calculated from knudsen effusion weight loss | 0.00057
323.2 K, Crystal, Calculated from knudsen effusion weight loss | 0.0007
325.15 K, Crystal, Calculated from knudsen effusion weight loss | 0.000857
327.33 K, Crystal, Calculated from knudsen effusion weight loss | 0.0011
329.21 K, Crystal, Calculated from knudsen effusion weight loss | 0.00133
336.49 K, Crystal, Closed cell (Static) method | 0.00284
338.49 K, Crystal, Closed cell (Static) method | 0.00343
340.48 K, Crystal, Closed cell (Static) method | 0.00423
342.48 K, Crystal, Closed cell (Static) method | 0.00513
344.42 K, Crystal, Closed cell (Static) method | 0.00612
344.43 K, Metastable liquid, Closed cell (Static) method | 0.01029
346.35 K, Crystal, Closed cell (Static) method | 0.00743
346.53 K, Metastable liquid, Closed cell (Static) method | 0.012
348.28 K, Metastable liquid, Closed cell (Static) method | 0.01367
348.35 K, Crystal, Closed cell (Static) method | 0.00894
350.35 K, Crystal, Closed cell (Static) method | 0.01085
350.37 K, Metastable liquid, Closed cell (Static) method | 0.01582
352.36 K, Metastable liquid, Closed cell (Static) method | 0.01813
352.41 K, Crystal, Closed cell (Static) method | 0.01316
354.35 K, Metastable liquid, Closed cell (Static) method | 0.02079
354.4 K, Crystal, Closed cell (Static) method | 0.01584
356.31 K, Metastable liquid, Closed cell (Static) method | 0.02367
358.2 K, Metastable liquid, Closed cell (Static) method | 0.02689
360.17 K, Metastable liquid, Closed cell (Static) method | 0.03085
362.2 K, Metastable liquid, Closed cell (Static) method | 0.03491
364.19 K, Metastable liquid, Closed cell (Static) method | 0.04045
366.13 K, Metastable liquid, Closed cell (Static) method | 0.04605
368.11 K, Closed cell (Static) method, Liquid | 0.05207
370.06 K, Closed cell (Static) method, Liquid | 0.05865
372.03 K, Closed cell (Static) method, Liquid | 0.06591
374.17 K, Closed cell (Static) method, Liquid | 0.07545
376.12 K, Closed cell (Static) method, Liquid | 0.08537
378.03 K, Closed cell (Static) method, Liquid | 0.09595
380 K, Closed cell (Static) method, Liquid | 0.1071
381.93 K, Closed cell (Static) method, Liquid | 0.119
383.93 K, Closed cell (Static) method, Liquid | 0.1348
385.88 K, Closed cell (Static) method, Liquid | 0.1513
387.86 K, Closed cell (Static) method, Liquid | 0.1682
389.84 K, Closed cell (Static) method, Liquid | 0.1876
391.79 K, Closed cell (Static) method, Liquid | 0.2094
393.77 K, Closed cell (Static) method, Liquid | 0.2339
395.73 K, Closed cell (Static) method, Liquid | 0.259
397.68 K, Closed cell (Static) method, Liquid | 0.284
399.69 K, Closed cell (Static) method, Liquid | 0.3164
401.66 K, Closed cell (Static) method, Liquid | 0.3517

Conditions | Normal melting temperature [°C]
[2], Crystal | 92.92

COc1c(Cl)cc(Cl)cc1Cl [2,4,6-trichloroanisole]
Conditions | Molar enthalpy of transition or fusion [kJ/mol]
[1] | 22.4

[2]
Conditions | vapor or sublimation pressure [kPa]
297.11 K, Crystal, Closed cell (Static) method | 0.00239
300.13 K, Crystal, Closed cell (Static) method | 0.00337
303.1 K, Crystal, Closed cell (Static) method | 0.00462
306.06 K, Crystal, Closed cell (Static) method | 0.00649
309.01 K, Crystal, Closed cell (Static) method | 0.00877
311.98 K, Crystal, Closed cell (Static) method | 0.01199
315.2 K, Crystal, Closed cell (Static) method | 0.01642
317.95 K, Crystal, Closed cell (Static) method | 0.02189
319.65 K, Metastable liquid, Closed cell (Static) method | 0.03551
320.87 K, Crystal, Closed cell (Static) method | 0.02895
322.82 K, Metastable liquid, Closed cell (Static) method | 0.04391
323.91 K, Crystal, Closed cell (Static) method | 0.03921
325.77 K, Metastable liquid, Closed cell (Static) method | 0.05384
326.89 K, Crystal, Closed cell (Static) method | 0.05174
328.77 K, Metastable liquid, Closed cell (Static) method | 0.06611
329.85 K, Crystal, Closed cell (Static) method | 0.06647
331.73 K, Metastable liquid, Closed cell (Static) method | 0.0803
334.71 K, Closed cell (Static) method, Liquid | 0.09766
337.68 K, Closed cell (Static) method, Liquid | 0.118
340.63 K, Closed cell (Static) method, Liquid | 0.1424
343.63 K, Closed cell (Static) method, Liquid | 0.1712
346.05 K, Closed cell (Static) method, Liquid | 0.1971
348.6 K, Closed cell (Static) method, Liquid | 0.2292
351.58 K, Closed cell (Static) method, Liquid | 0.2724
354.51 K, Closed cell (Static) method, Liquid | 0.3225
356.47 K, Closed cell (Static) method, Liquid | 0.3593
359.37 K, Closed cell (Static) method, Liquid | 0.4214
362.38 K, Closed cell (Static) method, Liquid | 0.4943
365.32 K, Closed cell (Static) method, Liquid | 0.5801
368.31 K, Closed cell (Static) method, Liquid | 0.6729

Conditions | Normal melting temperature [°C]
[2], Crystal | 59.32

From the NIST ThermoML archive (doi:10.1021/acs.jced.9b00062)
